PMC509409, “Recognition and Accommodation at the Androgen Receptor Coactivator Binding Interface” (PLoS Biology, 2004)
Where a SMILES comes first, the peptide text is derived from it. The star is where a group is joined. Biotin = O=C1N[C@H]2[C@H](CS[C@H]2CCCCC(=O)*)N1

What was measured:
AR LBD [1] = target: T1, AR LBD (Pan troglodytes, UniProt O97775); test: X-ray crystal structures of AR LBD-peptide complexes, buried surface area; format: chimp (100% identity to the human form in protein sequence); conditions: calculated with CNS from crystal structure; for Buried surface area, +1: +1 residue; for Buried surface area, +1 / Buried surface area, +4 / Buried surface area, +5: side chain atoms only; for Buried surface area, +4: +4 residue; for Buried surface area, +5: +5 residue; for Buried surface area, Total: AR LBD-peptide complex, DHT-bound
T1 construct: chimp AR LBD (residues 663–919—human numbering); GST (N, cleaved yes); made in house; host or cells: E. coli BL21 (DE3) STAR
T1 sequence (O97775 655-911 limits assumed): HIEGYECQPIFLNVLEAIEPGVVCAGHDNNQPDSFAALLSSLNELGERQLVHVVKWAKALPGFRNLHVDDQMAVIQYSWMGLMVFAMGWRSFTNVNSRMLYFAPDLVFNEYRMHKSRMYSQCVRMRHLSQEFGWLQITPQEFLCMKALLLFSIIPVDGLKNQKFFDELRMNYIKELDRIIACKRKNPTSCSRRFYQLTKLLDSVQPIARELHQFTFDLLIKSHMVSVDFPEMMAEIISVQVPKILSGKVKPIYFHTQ
Procedure: (§1) Expression and purification of the AR LBD for crystallization were performed essentially as described ([Matias et al. 2000]). […] Induction was carried out with 30 μM IPTG at 17 °C for 16–18 h. E. coli cells were lysed in buffer (10 mM Tris, [pH 8.0], 150 mM NaCl, 10% glycerol, 1 mM TCEP, 0.2 mM PMSF) supplemented with 0.5 μg/ml lysozyme, 5 U/ml benzonase, 0.5% CHAPS, and 10 μM DHT. All buffers for further purification steps contained 1 μM DHT. Soluble cell lysate was adsorbed to Glutathione Sepharose 4 Fast Flow resin (Amersham Biosciences), washed with buffer containing 0.1% n-octyl β-glucoside, and eluted with 15 mM glutathione. After cleavage of the GST moiety with thrombin, final purification of the AR LBD was carried out using a HiTrap SP cation exchange column (Amersham Biosciences). Eluted AR LBD was dialyzed overnight at 4 °C against buffer containing 50 mM HEPES (pH 7.2), 10% glycerol, 0.2 mM TCEP, 20 μM DHT, 150 mM Li2SO4, and 0.1% n-octyl β-glucoside, then concentrated to greater than 4 mg/ml for crystallization.
Purified, concentrated AR LBD was combined with 3x to 6x molar excess of peptide and incubated 1 h at room temperature before crystallization trials. Complexes were crystallized using the hanging drop vapor diffusion method. Protein–peptide solution was combined in a 1:1 ratio with a well solution consisting of 0.6–0.8 M sodium citrate and 100 mM Tris or HEPES buffer (pH 7–8). Crystals typically appeared after 1–2 d, with maximal size attained within 2 wk. For data collection, crystals were swiped into a cryo-protectant solution consisting of well solution plus 10% glycerol before flash freezing in liquid nitrogen. The addition of ethylene glycol to a well concentration of 10%–20% was later found to both improve crystal quality and enable the freezing of crystals directly out of the drop.
Datasets were collected at 100K at the Advanced Light Source (Lawrence Berkeley Laboratory, Berkeley, California, United States), beamline 8.3.1, with either a ADSC Quantum 315 or Quantum 210 CCD detector. Data were processed using Denzo and Scalepack ([Otwinowski and Minor 1997]). Molecular replacement searches were performed with rotation and translation functions from CNS ([Brunger et al. 1998]). Initial searches for AR–FxxLF were performed using the structure of AR–R1881 (PDB: 1E3G) with R1881 omitted from the search model. Subsequent searches for all other complexes were performed using the refined LBD structure from the AR–FxxLF complex. To minimize the possibility of model bias, FxxLF peptide and DHT were omitted from all molecular replacement searches. Protein models were built by iterative rounds of simulated annealing, conjugate gradient minimization, and individual B-factor refinement in CNS followed by manual rebuilding in Quanta 2000 (Accelrys, San Diego, California, United States) using σA-weighted 2F o − F c, F o − F c, and simulated annealing composite omit maps. Superposition of structures was performed with LSQMAN ([Kleywegt 1996]). Buried surface area calculations were performed with CNS. All figures were generated with PyMOL ([DeLano 2002]). Coordinates and structure factors for all complexes have been deposited in the Protein Data Bank.

AR LBD [2] = target: T1, AR LBD; test: Surface plasmon resonance (Biacore 2000), peptide binding to AR LBD; format: chimp (100% identity to the human form in protein sequence); conditions: for ka1 × 10^-4: association rate, biotinylated peptide immobilised (approx. 250 RU), AR LBD 10, 5, 1 μM and 300 nM, SMRT2 signal subtracted, values are ka1 multiplied by 10^-4; for ka1 × 10^-4 / kd1 × 10^2: step 1 of two-state conformational change model; for ka1 × 10^-4 / Kd2 / kd1 × 10^2 / ka2 × 10^3 / kd2 × 10^3: HBS-P pH 7.4; for Kd2: dissociation constant of step 2, calculated from rate constants, two-state conformational change model; for kd1 × 10^2: dissociation rate, values are kd1 multiplied by 10^2; for ka2 × 10^3: forward rate, values are ka2 multiplied by 10^3; for ka2 × 10^3 / kd2 × 10^3: step 2 of two-state conformational change model; for kd2 × 10^3: reverse rate, values are kd2 multiplied by 10^3
Procedure: as §1
Affinities of peptides to the AR LBD were determined with a Biacore (Piscataway, New Jersey, United States) 2000 instrument. A peptide derived from silencing mediator for RXR and TR 2 (SMRT2) served as a negative control. 1 mM peptide stock solutions in DMSO were diluted into HBS-P buffer (10 mM HEPES [pH 7.4], 150 mM NaCl, 0.005% Surfactant P20) to generate 10 μM working solutions. HBS-P buffer was flowed through the cells to achieve a stable baseline prior to immobilization of the biotinylated peptides. To achieve the binding of approximately 250 RU of peptides to individual cells, working solutions of peptides were diluted to 100 nM in HBS-P buffer. Unbound streptavidin sites were blocked by injection of a 1 mM biotin solution at a rate of 10 μl/min.
Purified AR LBD was diluted into HBS-P buffer to a concentration of 10 μM and injected into all four Flowcells using the Kinject protocol at a flow rate of 10 μl/min (contact time 360 s, dissociation time 360 s). Following the dissociation phase, the surface of the chip was regenerated to remove residual AR LBD by QuickInject of buffer containing 10 mM HEPES and 50% ethylene glycol (pH 11). Following the establishment of a stable baseline, the same procedure was repeated using a series of AR LBD dilutions (5 μM, 1 μM, and 300 nM) in an iterative manner. Analysis of the data was performed using BIAevaluation 3.0 software (Biacore). The SMRT2 signals were subtracted as background from the three remaining peptide signals. Data were best fit using the two-state conformational change model ([Warnmark et al. 2001], [2002]).

AR LBD [3] = target: T1, AR LBD; test: FRET-based assay of interaction between synthetic peptide and purified AR LBD; format: binding, chimp (100% identity to the human form in protein sequence); conditions: in vitro; excitation 320 nm, emission 625 and 665 nm; streptavidin-cryptate / streptavidin-XL665; unpublished data
Procedure: Synthetic peptides corresponding to the deduced amino acid sequences from receptor-specific phage were tested for their ability to interact with purified AR LBD using a FRET–based assay format. […] Flourophor conjugates were prepared by incubating either biotinylated peptides with streptavidin-cryptate (Cis Bio International, Bagnols Sur Ceze Cedex, France), or biotinylated AR LBD with streptavidin-XL665 (Cis Bio). Interaction between peptide and AR LBD was monitored by the ratio of energy transfer by excitation at 320 nm and emission at 625 nm and 665 nm.

SMILES | Buried surface area, +1 (AR LBD [1]) | Buried surface area, +4 (AR LBD [1]) | Buried surface area, +5 (AR LBD [1]) | Buried surface area, Total (AR LBD [1]) | ka1 × 10^-4 (AR LBD [2]) | Kd2 (AR LBD [2]) | kd1 × 10^2 (AR LBD [2]) | ka2 × 10^3 (AR LBD [2]) | kd2 × 10^3 (AR LBD [2]) | affinity relative to FxxLF (AR LBD [2]; comparison with FxxLF) | affinity for AR (AR LBD [2]) | fold weaker affinity than FxxLF (AR LBD [2]; Kd ratio relative to FxxLF) | affinity relative to tightest binding p160-derived LxxLL motif, NR box 3 of TIF2 (AR LBD [2]; compared with earlier value for TIF2 NR box 3 (He and Wilson 2003)) | binding to AR in FRET-based screens (AR LBD [3])
CC(C)C[C@H](NC(=O)[C@H](CO)NC(=O)[C@H](CCC(=O)O)NC(=O)[C@H](Cc1ccccc1)NC(=O)[C@H](CCCNC(=N)N)NC(=O)[C@H](CO)NC(=O)[C@@H](N)CO)C(=O)N[C@@H](Cc1ccccc1)C(=O)N[C@@H](C)C(=O)NCC(=O)N[C@@H](CCC(=O)O)C(=O)N[C@@H](CCCCN)C(=O)N[C@@H](CCC(=O)O)C(=O)N[C@@H](CO)C(=O)N[C@@H](CCCNC(=N)N)C(=O)N[C@@H](CO)C(=O)NCC(=O)N[C@@H](CO)C(=O)NCC(=O)N[C@@H](CCCCNC(=O)CCCC[C@@H]1SC[C@@H]2NC(=O)N[C@@H]21)C(=O)O [FxxLF] (H-SSRFESLFAGEKESRSGSGK(Biotin)-OH; N-terminus and C-terminus assumed) | 305 Å^2 | 189 Å^2 | 276 Å^2 | 1012 Å^2 | 5.2±1.0 M^-2s^-1 | 2.6±1.0 | 2.3±0.03 M^-1s^-1 | 1.3±0.5 M^--1s^-1 | 3.5±0.06 M^-1s^-1 |  |  |  |  | 
CC(C)C[C@H](NC(=O)[C@H](C)NC(=O)[C@H](C)NC(=O)[C@H](Cc1ccccc1)NC(=O)[C@H](CCCCN)NC(=O)[C@H](CO)NC(=O)[C@@H](N)CO)C(=O)N[C@@H](Cc1c[nH]c2ccccc12)C(=O)N[C@@H](CC(=O)O)C(=O)N1CCC[C@H]1C(=O)N1CCC[C@H]1C(=O)N[C@@H](CCCCN)C(=O)N[C@@H](CC(C)C)C(=O)N[C@@H](CO)C(=O)N[C@@H](CCCNC(=N)N)C(=O)N[C@@H](CO)C(=O)NCC(=O)N[C@@H](CO)C(=O)NCC(=O)N[C@@H](CCCCNC(=O)CCCC[C@@H]1SC[C@@H]2NC(=O)N[C@@H]21)C(=O)O [FxxLW] (H-SSKFAALWDPPKLSRSGSGK(Biotin)-OH; N-terminus and C-terminus assumed) | 315 Å^2 | 187 Å^2 | 313 Å^2 | 937 Å^2 | 5.9±1.5 M^-2s^-1 | 1.6±0.2 | 3.4±0.04 M^-1s^-1 | 3.6±0.3 M^--1s^-1 | 5.6±0.05 M^-1s^-1 | slightly better than FxxLF |  |  |  | 
CC(C)C[C@H](NC(=O)CNC(=O)[C@H](CCCNC(=N)N)NC(=O)[C@H](CO)NC(=O)[C@@H](N)CO)C(=O)N[C@@H](CC(C)C)C(=O)N[C@@H](Cc1c[nH]c2ccccc12)C(=O)N[C@@H](CC(=O)O)C(=O)N[C@@H](CC(C)C)C(=O)N[C@@H](CC(C)C)C(=O)N[C@H](C(=O)N[C@@H](CCCCN)C(=O)N[C@@H](CC(=O)O)C(=O)N[C@@H](CO)C(=O)N[C@@H](CCCNC(=N)N)C(=O)N[C@@H](CO)C(=O)NCC(=O)N[C@@H](CO)C(=O)NCC(=O)N[C@@H](CCCCNC(=O)CCCC[C@@H]1SC[C@@H]2NC(=O)N[C@@H]21)C(=O)O)[C@@H](C)O [LxxLL] (H-SSRGLLWDLLTKDSRSGSGK(Biotin)-OH; N-terminus and C-terminus assumed) | 271 Å^2 | 193 Å^2 | 241 Å^2 | 984 Å^2 | 6.2±4.3 M^-2s^-1 | 1.6±0.2 | 7.0±0.17 M^-1s^-1 | 3.2±0.4 M^--1s^-1 | 5.0±0.04 M^-1s^-1 |  | moderate affinity | less than 2 -fold | more than three times stronger | demonstrated to bind AR in FRET-based screens in vitro
